Measured values as given in patent US11673898B2, “Substituted inhibitors of menin-MLL and methods of use” (Kura Oncology, Inc., priority 2016, dated 2023).

Target: T1, Menin MLL 4-43 (Homo sapiens, UniProt O00255)
T1 sequence (O00255 1-610): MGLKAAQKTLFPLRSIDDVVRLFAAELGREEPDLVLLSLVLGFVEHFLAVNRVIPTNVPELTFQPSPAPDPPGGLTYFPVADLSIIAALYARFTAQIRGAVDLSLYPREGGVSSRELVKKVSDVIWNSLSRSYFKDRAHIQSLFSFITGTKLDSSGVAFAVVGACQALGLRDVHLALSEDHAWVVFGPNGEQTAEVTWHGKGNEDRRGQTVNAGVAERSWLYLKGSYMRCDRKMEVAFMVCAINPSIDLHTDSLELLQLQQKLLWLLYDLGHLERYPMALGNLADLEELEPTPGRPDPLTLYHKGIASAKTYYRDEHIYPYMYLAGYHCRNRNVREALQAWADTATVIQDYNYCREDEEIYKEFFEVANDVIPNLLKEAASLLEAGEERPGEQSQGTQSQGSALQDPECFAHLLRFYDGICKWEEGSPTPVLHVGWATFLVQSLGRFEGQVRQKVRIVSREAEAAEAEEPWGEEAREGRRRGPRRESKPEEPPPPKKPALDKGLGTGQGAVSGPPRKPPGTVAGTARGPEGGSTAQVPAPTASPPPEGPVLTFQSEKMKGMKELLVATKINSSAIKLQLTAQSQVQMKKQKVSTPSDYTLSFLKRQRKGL
Test: Fluorescence polarization (FP) competition assay of the menin-MLL interaction
Format: binding
Conditions: fluorescence polarization assay; read-out: Menin MLL 4-43 IC50

`C=CC(=O)Nc1ccc(C(Cn2c(C#N)cc3c(C)c(CN4CCC(Nc5ncnc6sc(CC(F)(F)F)cc56)CC4)ccc32)OC)cc1` (stereo not shown) [Compound 1] and `CC(=O)N1CCN(C(C)Cn2c(C#N)cc3c(C)c(CN4CCC(Nc5ncnc6sc(CC(F)(F)F)cc56)CC4)ccc32)CC1` (stereo not shown) [Compound 5] cannot be ordered by IC50: 20 to 1000 nM for the first, 50 to 250 nM for the second.

`Cc1c(CN2CCC(Nc3ncnc4sc(CC(F)(F)F)cc34)CC2)ccc2c1cc(C#N)n2CC(C)N1CCN(S(C)(=O)=O)CC1` (stereo not shown) [Compound 2] and `Cc1c(CN2CCC(Nc3ncnc4sc(CC(F)(F)F)cc34)CC2)ccc2c1cc(C#N)n2CC(C)N1CCN(S(N)(=O)=O)CC1` (stereo not shown) [Compound 7] fall in the same range of IC50: 50 to 250 nM for the first, 50 to 250 nM for the second.

`Cc1c(CN2CCC(Nc3ncnc4sc(CC(F)(F)F)cc34)CC2)ccc2c1cc(C#N)n2CC(C)N1CCN(S(C)(=O)=O)CC1` (stereo not shown) [Compound 3] and `CCS(=O)(=O)N1CCN(C(C)Cn2c(C#N)cc3c(C)c(CN4CCC(Nc5ncnc6sc(CC(F)(F)F)cc56)CC4)ccc32)CC1` (stereo not shown) [Compound 4] cannot be ordered by IC50: 20 to 1000 nM for the first, 50 to 250 nM for the second.

`Cc1c(CN2CCC(Nc3ncnc4sc(CC(F)(F)F)cc34)CC2)ccc2c1cc(C#N)n2CC(C)N1CCN(C=O)CC1` (stereo not shown) [Compound 6] and `CNS(=O)(=O)N1CCN(C(C)Cn2c(C#N)cc3c(C)c(CN4CCC(Nc5ncnc6sc(CC(F)(F)F)cc56)CC4)ccc32)CC1` (stereo not shown) [Compound 8] cannot be ordered by IC50: < 50 nM for the first, < 50 nM for the second.

Compared with `Cc1c(CN2CCC(Nc3ncnc4sc(CC(F)(F)F)cc34)CC2)ccc2c1cc(C#N)n2CC(C)N1CCN(S(C)(=O)=O)C(C)C1` (stereo not shown) [Compound 11], `Cc1c(CN2CCC(Nc3ncnc4sc(CC(F)(F)F)cc34)CC2)ccc2c1cc(C#N)n2CC(C)N1CCN(S(C)(=O)=O)[C@@H](C)C1` (stereo partly shown) [Compound 13] is lower in IC50: 50 to 250 nM for the first, < 50 nM for the second. The second is the more potent here.

First: Cc1c(CN2CCC(Nc3ncnc4sc(CC(F)(F)F)cc34)CC2)ccc2c1cc(C#N)n2CC(C)N1C[C@@H](C)N(S(C)(=O)=O)[C@@H](C)C1 (stereo partly shown) [Compound 12]
Second: Cc1c(CN2CCC(Nc3ncnc4sc(CC(F)(F)F)cc34)CC2)ccc2c1cc(C#N)n2CC(C)N1C[C@H](C)N(S(C)(=O)=O)[C@@H](C)C1 (stereo partly shown) [Compound 21]
The IC50 of the first is lower: < 50 nM for the first, 50 to 250 nM for the second. The first is the more potent here.

First: Cc1c(CN2CCC(Nc3ncnc4sc(CC(F)(F)F)cc34)CC2)ccc2c1cc(C#N)n2CC(C)N1CCN(S(C)(=O)=O)[C@H](C)C1 (stereo partly shown) [Compound 14]
Second: Cc1c(CN2CCC(Nc3ncnc4sc(CC(F)(F)F)cc34)CC2)ccc2c1cc(C#N)n2C[C@@H](C)N1CCN(S(C)(=O)=O)[C@@H](C)C1 [Compound 17]
The IC50 of the first is lower: < 50 nM for the first, 50 to 250 nM for the second. The first is the more potent here.

Compared with `CCC(Cn1c(C#N)cc2c(C)c(CN3CCC(Nc4ncnc5sc(CC(F)(F)F)cc45)CC3)ccc21)N1CCN(S(C)(=O)=O)CC1` (stereo not shown) [Compound 15], `Cc1c(CN2CCC(Nc3ncnc4sc(CC(F)(F)F)cc34)CC2)ccc2c1cc(C#N)n2CC(C(C)C)N1CCN(S(C)(=O)=O)CC1` (stereo not shown) [Compound 24] is lower in IC50: > 1000 nM for the first, 20 to 1000 nM for the second.

`Cc1c(CN2CCC(Nc3ncnc4sc(CC(F)(F)F)cc34)CC2)ccc2c1cc(C#N)n2CC(C)(C)N1CCN(S(C)(=O)=O)CC1` [Compound 16] and `Cc1c(CN2CCC(Nc3ncnc4sc(CC(F)(F)F)cc34)CC2)ccc2c1cc(C#N)n2CC(=O)N1CCN(S(C)(=O)=O)CC1` [Compound 35, 4-methyl-1-(2-(4-(methylsulfonyl)piperazin-1-yl)-2-oxoethyl)-5-((4-((6-(2,2,2-trifluoroethyl)thieno[2,3-d]pyrimidin-4-yl)amino)piperidin-1-yl)methyl)-1H-indole-2-carbonitrile] cannot be ordered by IC50: > 1000 nM for the first, > 1000 nM for the second.

First: Cc1c(CN2CCC(Nc3ncnc4sc(CC(F)(F)F)cc34)CC2)ccc2c1cc(C#N)n2C[C@H](C)N1CCN(S(C)(=O)=O)[C@@H](C)C1 [Compound 18]
Second: Cc1c(CN2CCC(Nc3ncnc4sc(CC(F)(F)F)cc34)CC2)ccc2c1cc(C#N)n2C[C@H](C)N1CCN(S(C)(=O)=O)[C@H](C)C1 [Compound 19]
The IC50 of the first is lower: < 50 nM for the first, 50 to 250 nM for the second. The first is the more potent here.

`Cc1c(CN2CCC(Nc3ncnc4sc(CC(F)(F)F)cc34)CC2)ccc2c1cc(C#N)n2C[C@@H](C)N1CCN(S(C)(=O)=O)[C@H](C)C1` [Compound 20] and `CC[C@H]1CN(C(C)Cn2c(C#N)cc3c(C)c(CN4CCC(Nc5ncnc6sc(CC(F)(F)F)cc56)CC4)ccc32)CCN1S(C)(=O)=O` (stereo partly shown) [Compound 26] cannot be ordered by IC50: < 50 nM for the first, 20 to 1000 nM for the second.

First: Cc1c(CN2CCC(Nc3ncnc4sc(CC(F)(F)F)cc34)CC2)ccc2c1cc(C#N)n2CC(C)N1C[C@@H](C)N(S(C)(=O)=O)[C@H](C)C1 (stereo partly shown) [Compound 22]
Second: Cc1c(CN2CCC(Nc3ncnc4sc(CC(F)(F)F)cc34)CC2)ccc2c1cc(C#N)n2CC(C)N1CC2CC(C1)N2S(C)(=O)=O (stereo not shown) [Compound 30]
The IC50 of the first is lower: < 50 nM for the first, 50 to 250 nM for the second. The first is the more potent here.

First: Cc1c(CN2CCC(Nc3ncnc4sc(CC(F)(F)F)cc34)CC2)ccc2c1cc(C#N)n2CC(C1CC1)N1CCN(S(C)(=O)=O)CC1 (stereo not shown) [Compound 23]
Second: Cc1c(CN2CCC(Nc3ncnc4sc(CC(F)(F)F)cc34)CC2)ccc2c1cc(C#N)n2C(C)CN1CCN(S(C)(=O)=O)CC1 (stereo not shown) [Compound 27]
The IC50 of the first is higher: > 1000 nM for the first, < 50 nM for the second.

`Cc1c(CN2CCC(Nc3ncnc4sc(CC(F)(F)F)cc34)CC2)ccc2c1cc(C#N)n2CC(C)N1CCN(S(C)(=O)=O)C(C)(C)C1` (stereo not shown) [Compound 25] and `CC[C@@H]1CN(C(C)Cn2c(C#N)cc3c(C)c(CN4CCC(Nc5ncnc6sc(CC(F)(F)F)cc56)CC4)ccc32)CCN1S(C)(=O)=O` (stereo partly shown) [Compound 29] fall in the same range of IC50: 50 to 250 nM for the first, 50 to 250 nM for the second.

First: Cc1c(CN2CCC(Nc3ncnc4sc(CC(F)(F)F)cc34)CC2)ccc2c1cc(C#N)n2CC(C)N1CC2CCC(C1)N2S(C)(=O)=O (stereo not shown) [Compound 28]
Second: Cc1c(CN2CCC(Nc3ncnc4sc(CC(F)(F)F)cc34)CC2)ccc2c1cc(C#N)n2CCN1C[C@@H](C)N(S(C)(=O)=O)[C@@H](C)C1 [Compound 46]
The IC50 of the first is lower: < 50 nM for the first, 50 to 250 nM for the second.

`Cc1c(CN2CCC(Nc3ncnc4sc(CC(F)(F)F)cc34)CC2)ccc2c1cc(C#N)n2CCN1CCN(S(C)(=O)=O)C(C)C1` (stereo not shown) [Compound 43] and `Cc1c(CN2CCC(Nc3ncnc4sc(CC(F)(F)F)cc34)CC2)ccc2c1cc(C#N)n2CCN1CCN(S(C)(=O)=O)CC1C` (stereo not shown) [Compound 45] cannot be ordered by IC50: 50 to 250 nM for the first, 20 to 1000 nM for the second.

First: Cc1c(CN2CCC(Nc3ncnc4sc(CC(F)(F)F)cc34)CC2)ccc2c1cc(C#N)n2CCN1CC(C)N(S(C)(=O)=O)CC1C (stereo not shown) [Compound 44]
Second: Cc1c(CN2CCC(Nc3ncnc4sc(CC(F)(F)F)cc34)CC2)ccc2c1cc(C#N)n2CCN1C(C)CN(S(C)(=O)=O)CC1C (stereo not shown) [Compound 47]
The IC50 of the first is lower: 20 to 1000 nM for the first, > 1000 nM for the second. The first is the more potent here.

`Cc1c(CN2CCC(Nc3ncnc4sc(CC(F)(F)F)cc34)CC2)ccc2c1cc(C#N)n2CCN1C[C@@H](C)N(S(C)(=O)=O)[C@H](C)C1` [Compound 48] and `Cc1c(CN2CCC(Nc3ncnc4sc(CC(F)(F)F)cc34)CC2)ccc2c1cc(C#N)n2CCN1C[C@H](C)N(S(C)(=O)=O)[C@@H](C)C1` [Compound 49] fall in the same range of IC50: 50 to 250 nM for the first, 50 to 250 nM for the second.

`Cc1c(CN2CCC(Nc3ncnc4sc(CC(F)(F)F)cc34)CC2)ccc2c1cc(C#N)n2CCN1CCC2(CC1)CCN(S(C)(=O)=O)C2` [Compound 52] and `Cc1c(CN2CCC(Nc3ncnc4sc(CC(F)(F)F)cc34)CC2)ccc2c1cc(C#N)n2CCN1CCC2(CC1)CN(S(C)(=O)=O)C2` [Compound 54] cannot be ordered by IC50: 20 to 1000 nM for the first, 50 to 250 nM for the second.

`Cc1c(CN2CCC(Nc3ncnc4sc(CC(F)(F)F)cc34)CC2)ccc2c1cc(C#N)n2CCN1CCC2(CCN(S(C)(=O)=O)C2)C1` (stereo not shown) [Compound 53] and `Cc1c(CN2CCC(Nc3ncnc4sc(CC(F)(F)F)cc34)CC2)ccc2c1cc(C#N)n2CCN1CC2CN(S(C)(=O)=O)CC2C1` (stereo not shown) [Compound 55] fall in the same range of IC50: 20 to 1000 nM for the first, 20 to 1000 nM for the second.
